Reference: ChEMBL document CHEMBL5463725, “Data for DCP probe BAY-277” (2023)

How the values were obtained:
[1] = target: T1, Muscarinic acetylcholine receptor M2 (Homo sapiens) (UniProt P08172); settings: Compound concentration 10.0 uM
T1 sequence (whole entry): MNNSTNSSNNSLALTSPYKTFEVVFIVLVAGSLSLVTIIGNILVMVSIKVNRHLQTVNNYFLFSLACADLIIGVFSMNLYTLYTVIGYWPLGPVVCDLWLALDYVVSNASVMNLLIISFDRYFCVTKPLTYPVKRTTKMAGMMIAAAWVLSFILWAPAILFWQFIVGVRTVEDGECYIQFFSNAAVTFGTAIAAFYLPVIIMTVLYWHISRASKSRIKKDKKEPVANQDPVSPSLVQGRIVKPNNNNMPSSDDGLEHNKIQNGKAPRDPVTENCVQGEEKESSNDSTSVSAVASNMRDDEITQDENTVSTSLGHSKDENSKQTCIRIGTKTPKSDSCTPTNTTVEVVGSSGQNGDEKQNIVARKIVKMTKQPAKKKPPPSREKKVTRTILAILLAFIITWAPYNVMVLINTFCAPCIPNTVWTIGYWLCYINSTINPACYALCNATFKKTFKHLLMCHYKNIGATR

[2] = target: GABA-A receptor; anion channel (Rattus norvegicus) (UniProt O09028+P15431+P18506+P18508+P19969+P20236+P23574+P23576+P28471+P28473+P30191+P62813+P63079+P63138+Q91ZM7+Q9ES14); settings: Compound concentration 10.0 uM
[3] = target: Endothelin receptor type B (Homo sapiens) (UniProt P24530); assay: Inhibition of Endothelin ETB at 10.0 µM in the Eurofins Panlabs Safety Screen; settings: Compound concentration 10.0 uM
[4] = target: Thromboxane-A synthase (Homo sapiens) (UniProt P24557); assay: Inhibition of Thromboxane Synthase at 10.0 µM in the Eurofins Panlabs Safety Screen; settings: Compound concentration 10.0 uM
[5] = target: Tyrosine-protein kinase Lck (Homo sapiens) (UniProt P06239); assay: Inhibition of Lck(h) at 10.0 µM in the Eurofins Kinase panel; settings: Compound concentration 10.0 uM
[6] = target: T2, Alpha-2C adrenergic receptor (Homo sapiens) (UniProt P18825); settings: Compound concentration 10.0 uM
T2 sequence (whole entry): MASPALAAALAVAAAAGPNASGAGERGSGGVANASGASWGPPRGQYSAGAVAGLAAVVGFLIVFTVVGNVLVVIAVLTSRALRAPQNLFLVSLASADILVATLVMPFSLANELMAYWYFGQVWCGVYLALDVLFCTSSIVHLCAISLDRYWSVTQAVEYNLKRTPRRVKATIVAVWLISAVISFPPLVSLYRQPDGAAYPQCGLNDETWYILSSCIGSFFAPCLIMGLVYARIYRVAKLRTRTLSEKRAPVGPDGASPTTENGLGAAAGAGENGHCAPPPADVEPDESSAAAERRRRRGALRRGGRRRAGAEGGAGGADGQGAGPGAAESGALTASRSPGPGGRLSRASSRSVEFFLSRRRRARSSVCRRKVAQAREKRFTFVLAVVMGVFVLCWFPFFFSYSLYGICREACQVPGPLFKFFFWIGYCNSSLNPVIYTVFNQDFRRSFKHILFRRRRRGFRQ

[7] = target: Progesterone receptor (Homo sapiens) (UniProt P06401); assay: Inhibition of Progesterone PR-B at 10.0 µM in the Eurofins Panlabs Safety Screen; settings: Compound concentration 10.0 uM
[8] = target: Adenosine receptor A3 (Homo sapiens) (UniProt P0DMS8); assay: Inhibition of Adenosine A3 at 10.0 µM in the Eurofins Panlabs Safety Screen; settings: Compound concentration 10.0 uM
[9] = target: T2, Alpha-2C adrenergic receptor (Homo sapiens); assay: Inhibition of Adrenergic alpha2C at 10.0 µM in the Eurofins Panlabs Safety Screen; settings: Compound concentration 10.0 uM
[10] = target: Vasopressin V1a receptor (Homo sapiens) (UniProt P37288); assay: Inhibition of Vasopressin V1A at 10.0 µM in the Eurofins Panlabs Safety Screen; settings: Compound concentration 10.0 uM
[11] = target: Histamine H1 receptor (Homo sapiens) (UniProt P35367); settings: Compound concentration 10.0 uM
[12] = target: Beta-1 adrenergic receptor (Homo sapiens) (UniProt P08588); assay: Inhibition of Adrenergic beta1 at 10.0 µM in the Eurofins Panlabs Safety Screen; settings: Compound concentration 10.0 uM
[13] = target: cGMP-specific 3',5'-cyclic phosphodiesterase (Homo sapiens) (UniProt O76074); assay: Inhibition of Phosphodiesterase PDE5A at 10.0 µM in the Eurofins Panlabs Safety Screen; settings: Compound concentration 10.0 uM
[14] = target: T3, Muscarinic acetylcholine receptor M4 (Homo sapiens, UniProt P08173); assay: GPCRScan assay: inhibition of M4; design: radioligand conc. used [nm] 0.3 – 1.0, parental cells stable CHO
T3 sequence (P08173 whole entry): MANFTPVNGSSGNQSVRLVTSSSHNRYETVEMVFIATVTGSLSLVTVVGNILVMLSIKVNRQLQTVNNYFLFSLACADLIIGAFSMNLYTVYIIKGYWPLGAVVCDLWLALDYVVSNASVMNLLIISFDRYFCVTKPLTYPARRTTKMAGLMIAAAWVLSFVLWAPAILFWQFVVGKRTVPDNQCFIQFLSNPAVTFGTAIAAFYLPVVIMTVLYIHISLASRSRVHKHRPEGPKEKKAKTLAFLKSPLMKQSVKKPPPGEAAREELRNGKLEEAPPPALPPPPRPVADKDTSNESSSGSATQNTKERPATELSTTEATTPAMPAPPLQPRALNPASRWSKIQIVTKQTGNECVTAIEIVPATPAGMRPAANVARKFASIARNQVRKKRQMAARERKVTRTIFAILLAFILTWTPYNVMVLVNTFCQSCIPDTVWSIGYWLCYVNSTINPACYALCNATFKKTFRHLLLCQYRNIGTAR

[15] = target: D(1A) dopamine receptor (Homo sapiens) (UniProt P21728); settings: Compound concentration 10.0 uM
[16] = target: T4, Muscarinic acetylcholine receptor M4 (Homo sapiens) (UniProt P08173); assay: Inhibition of Muscarinic M4 at 10.0 µM in the Eurofins Panlabs Safety Screen; settings: Compound concentration 10.0 uM
T4 sequence (whole entry): T3 sequence (P08173 whole entry)

[17] = target: Type-1 angiotensin II receptor (Homo sapiens) (UniProt P30556); assay: Inhibition of Angiotensin AT1 at 10.0 µM in the Eurofins Panlabs Safety Screen; settings: Compound concentration 10.0 uM
[18] = target: Muscarinic acetylcholine receptor M3 (Homo sapiens, UniProt P20309); settings: Compound concentration 10.0 uM
[19] = target: Alpha-1B adrenergic receptor (Homo sapiens) (UniProt P35368); settings: Compound concentration 10.0 uM
[20] = target: 5-hydroxytryptamine receptor 3A (Homo sapiens) (UniProt P46098); settings: Compound concentration 10.0 uM
[21] = target: Delta-type opioid receptor (Homo sapiens) (UniProt P41143); settings: Compound concentration 10.0 uM
[22] = target: Death-associated protein kinase 3 (Homo sapiens) (UniProt O43293); assay: Inhibition of ZIPK(h) at 10.0 µM in the Eurofins Kinase panel; settings: Compound concentration 10.0 uM
[23] = target: B1 bradykinin receptor (Homo sapiens) (UniProt P46663); assay: Inhibition of Bradykinin B1 at 10.0 µM in the Eurofins Panlabs Safety Screen; settings: Compound concentration 10.0 uM

D(1A) dopamine receptor (Homo sapiens), sequence (P21728 whole entry): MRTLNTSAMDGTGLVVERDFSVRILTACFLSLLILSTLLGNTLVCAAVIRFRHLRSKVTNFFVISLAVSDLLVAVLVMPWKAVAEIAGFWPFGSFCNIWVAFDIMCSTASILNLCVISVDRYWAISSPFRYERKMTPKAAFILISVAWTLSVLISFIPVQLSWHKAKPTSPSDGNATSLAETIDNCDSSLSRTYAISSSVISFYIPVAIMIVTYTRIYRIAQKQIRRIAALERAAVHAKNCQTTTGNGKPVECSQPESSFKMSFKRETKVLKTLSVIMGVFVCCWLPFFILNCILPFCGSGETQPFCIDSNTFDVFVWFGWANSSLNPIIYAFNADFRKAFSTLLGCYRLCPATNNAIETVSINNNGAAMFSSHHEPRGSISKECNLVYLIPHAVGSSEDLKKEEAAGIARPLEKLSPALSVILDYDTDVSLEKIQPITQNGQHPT
Muscarinic acetylcholine receptor M3, sequence (P20309 whole entry, looked up): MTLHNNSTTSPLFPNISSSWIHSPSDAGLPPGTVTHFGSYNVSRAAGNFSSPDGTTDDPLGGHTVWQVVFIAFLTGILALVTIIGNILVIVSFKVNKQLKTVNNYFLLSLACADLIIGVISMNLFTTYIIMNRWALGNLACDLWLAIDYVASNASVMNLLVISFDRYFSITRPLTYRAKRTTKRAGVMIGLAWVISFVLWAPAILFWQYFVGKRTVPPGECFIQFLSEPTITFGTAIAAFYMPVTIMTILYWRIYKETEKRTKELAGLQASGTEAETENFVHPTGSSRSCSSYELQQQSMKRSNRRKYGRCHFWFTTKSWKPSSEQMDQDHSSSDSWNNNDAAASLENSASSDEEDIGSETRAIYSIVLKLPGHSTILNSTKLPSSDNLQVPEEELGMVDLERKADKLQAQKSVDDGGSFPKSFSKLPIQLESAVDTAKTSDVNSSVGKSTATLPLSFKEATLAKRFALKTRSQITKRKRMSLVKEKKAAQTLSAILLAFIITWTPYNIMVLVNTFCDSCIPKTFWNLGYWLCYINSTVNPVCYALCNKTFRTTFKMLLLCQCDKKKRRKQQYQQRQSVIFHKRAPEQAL
Alpha-1B adrenergic receptor (Homo sapiens), sequence (P35368 whole entry): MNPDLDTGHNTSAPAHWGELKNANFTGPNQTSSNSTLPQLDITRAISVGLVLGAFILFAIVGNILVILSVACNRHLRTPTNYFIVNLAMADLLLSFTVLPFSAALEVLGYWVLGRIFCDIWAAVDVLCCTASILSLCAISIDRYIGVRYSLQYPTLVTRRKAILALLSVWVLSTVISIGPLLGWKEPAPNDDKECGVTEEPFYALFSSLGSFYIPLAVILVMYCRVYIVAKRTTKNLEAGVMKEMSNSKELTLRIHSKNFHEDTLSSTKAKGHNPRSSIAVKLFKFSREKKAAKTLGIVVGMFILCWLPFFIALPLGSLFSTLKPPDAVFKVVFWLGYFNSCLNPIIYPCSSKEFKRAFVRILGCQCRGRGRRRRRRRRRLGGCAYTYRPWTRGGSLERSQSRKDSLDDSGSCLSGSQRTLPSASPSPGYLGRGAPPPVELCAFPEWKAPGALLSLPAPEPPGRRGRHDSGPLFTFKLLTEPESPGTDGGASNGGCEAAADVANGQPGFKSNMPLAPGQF
5-hydroxytryptamine receptor 3A (Homo sapiens), sequence (P46098 whole entry): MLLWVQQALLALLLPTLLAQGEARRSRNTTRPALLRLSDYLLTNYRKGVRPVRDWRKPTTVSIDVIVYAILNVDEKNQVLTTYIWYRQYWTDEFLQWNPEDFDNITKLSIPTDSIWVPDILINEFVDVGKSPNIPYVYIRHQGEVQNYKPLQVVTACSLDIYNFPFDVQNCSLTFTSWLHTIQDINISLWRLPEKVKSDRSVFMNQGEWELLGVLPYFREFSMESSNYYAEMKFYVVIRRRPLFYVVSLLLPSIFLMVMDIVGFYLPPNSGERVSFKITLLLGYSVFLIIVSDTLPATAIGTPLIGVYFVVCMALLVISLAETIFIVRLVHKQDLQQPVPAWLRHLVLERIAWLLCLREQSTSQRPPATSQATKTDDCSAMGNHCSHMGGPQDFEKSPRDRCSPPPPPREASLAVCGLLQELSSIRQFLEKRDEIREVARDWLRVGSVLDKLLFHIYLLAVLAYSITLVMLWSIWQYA
Delta-type opioid receptor (Homo sapiens), sequence (P41143 whole entry): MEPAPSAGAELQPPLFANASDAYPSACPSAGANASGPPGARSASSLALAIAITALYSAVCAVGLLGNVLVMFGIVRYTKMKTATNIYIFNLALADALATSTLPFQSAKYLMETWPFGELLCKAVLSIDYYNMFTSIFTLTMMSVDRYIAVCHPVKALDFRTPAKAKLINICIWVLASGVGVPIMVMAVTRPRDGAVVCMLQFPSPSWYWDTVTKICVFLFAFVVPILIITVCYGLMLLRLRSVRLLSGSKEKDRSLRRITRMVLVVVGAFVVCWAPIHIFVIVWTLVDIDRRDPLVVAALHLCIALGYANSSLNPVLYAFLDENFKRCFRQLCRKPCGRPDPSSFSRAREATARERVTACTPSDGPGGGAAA
Histamine H1 receptor (Homo sapiens), sequence (P35367 whole entry): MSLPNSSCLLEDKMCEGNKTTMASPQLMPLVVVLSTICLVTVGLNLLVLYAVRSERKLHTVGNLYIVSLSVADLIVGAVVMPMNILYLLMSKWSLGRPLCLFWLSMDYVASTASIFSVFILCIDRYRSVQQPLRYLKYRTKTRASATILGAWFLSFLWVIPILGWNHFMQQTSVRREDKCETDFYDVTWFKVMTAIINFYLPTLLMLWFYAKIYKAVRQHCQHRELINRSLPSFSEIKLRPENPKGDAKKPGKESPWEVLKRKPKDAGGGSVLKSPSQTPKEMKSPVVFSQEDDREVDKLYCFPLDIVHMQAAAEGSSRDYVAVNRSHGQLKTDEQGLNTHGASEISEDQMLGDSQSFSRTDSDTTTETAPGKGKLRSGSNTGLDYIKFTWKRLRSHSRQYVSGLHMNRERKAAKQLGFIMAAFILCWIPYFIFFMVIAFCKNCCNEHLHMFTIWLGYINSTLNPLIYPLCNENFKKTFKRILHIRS
Death-associated protein kinase 3 (Homo sapiens), sequence (O43293 whole entry, looked up): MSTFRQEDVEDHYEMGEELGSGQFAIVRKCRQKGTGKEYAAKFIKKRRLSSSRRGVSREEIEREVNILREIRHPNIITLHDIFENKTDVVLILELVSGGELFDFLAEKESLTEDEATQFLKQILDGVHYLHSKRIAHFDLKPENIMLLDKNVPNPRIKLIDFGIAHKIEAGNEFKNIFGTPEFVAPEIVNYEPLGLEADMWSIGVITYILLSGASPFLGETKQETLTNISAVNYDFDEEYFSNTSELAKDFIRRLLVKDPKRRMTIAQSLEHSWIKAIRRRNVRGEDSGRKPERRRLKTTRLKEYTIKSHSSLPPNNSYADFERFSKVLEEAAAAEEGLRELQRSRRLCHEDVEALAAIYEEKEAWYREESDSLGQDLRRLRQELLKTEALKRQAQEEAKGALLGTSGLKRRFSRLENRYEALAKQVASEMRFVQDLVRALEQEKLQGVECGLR
Progesterone receptor (Homo sapiens), sequence (P06401 whole entry): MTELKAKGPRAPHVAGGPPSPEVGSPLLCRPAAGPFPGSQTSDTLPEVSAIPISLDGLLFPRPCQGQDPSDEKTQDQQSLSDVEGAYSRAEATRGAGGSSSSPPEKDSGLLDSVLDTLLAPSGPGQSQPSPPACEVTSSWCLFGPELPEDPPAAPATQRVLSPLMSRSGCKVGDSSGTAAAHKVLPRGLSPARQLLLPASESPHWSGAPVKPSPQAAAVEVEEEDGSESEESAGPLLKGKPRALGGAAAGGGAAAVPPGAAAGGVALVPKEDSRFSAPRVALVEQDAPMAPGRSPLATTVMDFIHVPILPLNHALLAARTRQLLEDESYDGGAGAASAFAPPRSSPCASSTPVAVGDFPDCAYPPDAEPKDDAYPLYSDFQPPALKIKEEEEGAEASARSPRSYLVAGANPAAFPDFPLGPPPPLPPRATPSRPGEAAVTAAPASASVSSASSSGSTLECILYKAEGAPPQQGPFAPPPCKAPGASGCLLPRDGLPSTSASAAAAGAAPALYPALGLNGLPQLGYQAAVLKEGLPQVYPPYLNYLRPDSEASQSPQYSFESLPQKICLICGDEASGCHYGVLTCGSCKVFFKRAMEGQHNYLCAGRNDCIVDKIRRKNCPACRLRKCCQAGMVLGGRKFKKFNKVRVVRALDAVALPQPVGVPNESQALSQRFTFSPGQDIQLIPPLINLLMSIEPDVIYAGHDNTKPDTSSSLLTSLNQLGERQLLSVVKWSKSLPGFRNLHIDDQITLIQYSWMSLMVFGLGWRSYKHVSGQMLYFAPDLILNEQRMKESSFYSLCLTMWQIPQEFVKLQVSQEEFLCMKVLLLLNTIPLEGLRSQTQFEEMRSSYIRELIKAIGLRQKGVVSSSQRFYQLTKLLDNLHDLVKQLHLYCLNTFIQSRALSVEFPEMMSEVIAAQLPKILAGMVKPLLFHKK
Beta-1 adrenergic receptor (Homo sapiens), sequence (P08588 whole entry, looked up): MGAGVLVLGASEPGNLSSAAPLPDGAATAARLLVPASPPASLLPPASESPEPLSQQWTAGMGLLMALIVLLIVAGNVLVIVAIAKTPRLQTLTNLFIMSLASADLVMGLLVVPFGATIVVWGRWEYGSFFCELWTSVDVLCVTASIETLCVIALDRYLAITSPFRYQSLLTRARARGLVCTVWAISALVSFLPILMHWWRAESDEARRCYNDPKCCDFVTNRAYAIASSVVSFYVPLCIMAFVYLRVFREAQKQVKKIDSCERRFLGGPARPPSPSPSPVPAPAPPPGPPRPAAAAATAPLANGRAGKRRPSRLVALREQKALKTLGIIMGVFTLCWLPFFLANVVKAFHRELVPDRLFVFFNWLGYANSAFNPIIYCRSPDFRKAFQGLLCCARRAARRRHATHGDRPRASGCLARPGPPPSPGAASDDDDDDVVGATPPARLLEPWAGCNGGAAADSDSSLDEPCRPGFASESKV

Structure (SMILES): O=C1NCCCC1N1Cc2cc(C3CCN(C(=O)CCCCCN4CCC(c5ccc(Oc6nn7cnnc7c7c6CCCC7)cc5)CC4)CC3)ccc2C1=O (stereo not drawn)
- inhibition [1]: 57.2%
- inhibition [2]: 44.6%
- inhibition [3]: -5%
- inhibition [4]: 23%
- inhibition [5]: 11.9%
- inhibition [6]: 27.5%
- inhibition [7]: 19%
- inhibition [8]: 21%
- inhibition [9]: 62%
- inhibition [10]: -3%
- inhibition [11]: 14.2%
- inhibition [12]: 10%
- inhibition [13]: 10%
- Ki ([14]; read-out: Ki): 0.894 µM
- Ki ([14]; read-out: pKi (converted)): 0.891 µM
- inhibition [15]: 8.56%
- inhibition [16]: 57%
- inhibition [17]: 2%
- inhibition [18]: 51.5%
- inhibition [19]: 2.86%
- inhibition [20]: 23.8%
- inhibition [21]: 19.5%
- inhibition [22]: 15.9%
- inhibition [23]: 7%

Structure (SMILES): O=C1CCC(N2Cc3cc(C4CCN(C(=O)CCCCCN5CCC(c6ccc(Oc7nn8cnnc8c8c7CCCC8)cc6)CC5)CC4)ccc3C2=O)C(=O)N1 (stereo not drawn)
- inhibition [1]: 64.3%
- inhibition [2]: 36.6%
- inhibition [3]: 2%
- inhibition [4]: 10%
- inhibition [5]: 14.3%
- inhibition [6]: 47.9%
- inhibition [7]: 24%
- inhibition [8]: 16%
- inhibition [9]: 79%
- inhibition [10]: -8%
- inhibition [11]: 10.3%
- inhibition [12]: 0%
- inhibition [13]: 25%
- Ki ([14]; read-out: Ki): 0.632 µM
- Ki ([14]; read-out: pKi (converted)): 0.617 µM
- inhibition [15]: 5.21%
- inhibition [16]: 70%
- inhibition [17]: -4%
- inhibition [18]: 55%
- inhibition [19]: 6.88%
- inhibition [20]: 22.9%
- inhibition [21]: 17.5%
- inhibition [22]: 11.7%
- inhibition [23]: 1%
